Entries after “also recorded” stand apart in the source; their conditions may differ.
Columns and labels:
[1] = Antioxidant activity, DPPH spectrophotometric method; settings: for antioxidant activity (reaction with DPPH): DPPH about 25 μM, antioxidant 60 μM; for reaction time (time for reaching the plateau): DPPH, absorbance at 515 nm
Description: The antioxidant activity assays were carried out according to the 2,2-diphenyl-1-picrylhydrazyl (DPPH) spectrophotometric method.[34] Initially, to assess whether the compounds had antioxidant activity and to define the time required by each antioxidant to reach the steady state, the reduction in absorbance over time at 515 nm of a solution of DPPH mixed with the tested compound was recorded until reaching the plateau. […] The value of EC50 can be extrapolated by plotting the percentage of residual DPPH at the steady state as a function of the molar ratio of the antioxidant to initial DPPH.
2,2-Diphenyl-1-picrylhydrazyl (DPPH), MeOH, and ascorbic acid, used as the reference standard, were purchased from Sigma-Aldrich. Micropipettes Labmate (BRAND Dig. 10–100 μL; Dig. 100–1000 μL) and Transferpette (HIGH TECH LAB LM200: 20–200 μL; LM5000: 1000–5000 μL) were used to collect the samples. The assays were carried out by a double beam UV–vis Lambda 40 Perkin Elmer spectrophotometer using optical polystyrene cuvettes (10 × 10 × 45 mm, 340–800 nm optical transparency); each measure was repeated at least in triplicate. For data processing, UV-WIN Lab version 2.0 (Perkin Elmer Corporation) was used. The antioxidant activity of the tested compounds was evaluated by the DPPH method[34] based on the ability of antioxidant compounds to react with the stable radical DPPH, which has a maximum absorption at about 515 nm. Thus, by measuring the decrease in absorbance over time of DPPH solutions to which increasing amounts of the tested compound are added, the antioxidant activity of the compound can be determined.
[…]. To 2.90 mL of MeOH, 60 μL of a DPPH solution in MeOH (∼1.2 mM) and 40 μL of an antioxidant solution in MeOH (4.5 mM) were added to have in the cuvette concentrations of DPPH equal to about 25 μM and of antioxidant equal to 60 μM. The exact DPPH concentration was calculated through the Lambert–Beer relation, known the extinction coefficient of DPPH at 515 nm, equal to 1.25 × 10^4.[34] The absorbance was recorded until the plateau was reached.
. To obtain the initial DPPH concentration, 2.94 mL of MeOH and 60 μL of the DPPH solution in MeOH (∼1.2 mM) were placed in a polystyrene cuvette and the absorbance was recorded at 515 nm. The exact initial DPPH concentration was calculated through the Lambert–Beer relation. For subsequent measurements, the cuvettes were set up by introducing the opportune volume of MeOH to reach a total volume of 3 mL, 60 μL of the DPPH solution in MeOH (∼1.2 mM, to have a final concentration of ∼25 μM), and the appropriate volumes of the antioxidant stock solution in MeOH to have final concentrations between 1.5 and 12 μM for 20 and between 5 and 60 μM for 18 and 30; the absorbance was recorded at 515 nm at the plateau and then after 1 min for compound 20 and after 90 min for compounds 18 and 30. Each measure was repeated four times. With absorbance data, the percentages of residual DPPH at steady state were obtained using the following equation: [drawing 3] where Ac is the average of absorbance in the presence of antioxidant at plateau and A0 is the average of the initial absorbance of DPPH.
The same procedure was performed using ascorbic acid as the antioxidant at cuvette concentrations between 1.5 and 18 μM, recording the absorbance at 515 nm after 2 min from the preparation of the cuvettes.

[2] = test system: U-87 MG cell line; experiment: Cytotoxicity, MTT cell viability assay; settings: 24 h
Description: Data represent the absorbance % (± SD) relative to untreated cells in the same experiment and standardized to 100%. All data points were performed in triplicate and at least three independent experiments.
After an incubation time of 24 h, the medium was replaced by a new fresh medium containing 0.5 mg/mL MTT (Sigma, Deisenhofen, Germany). After 2 h at 37 °C in 5% CO2, unreacted dye was removed and cells were dissolved by DMSO (Merck, Darmstadt, Germany). Absorbance was read at 570 nm by a microtiter spectrophotometer plate reader. The data were expressed as absorbance relative to untreated cells in the same experiment and standardized to 100%. All data points were performed in triplicate and at least three independent experiments.

[3] = molecular target: T1, Electrophorus electricus AChE (EeAChE) (Electrophorus electricus, UniProt O42275); experiment: biochemical; settings: 100 μM acetylthiocholine; read-out: EeAChE, IC50 ± SE
T1 construct: purchased Sigma-Aldrich (Milan, Italy)
T1 sequence (O42275 24-633): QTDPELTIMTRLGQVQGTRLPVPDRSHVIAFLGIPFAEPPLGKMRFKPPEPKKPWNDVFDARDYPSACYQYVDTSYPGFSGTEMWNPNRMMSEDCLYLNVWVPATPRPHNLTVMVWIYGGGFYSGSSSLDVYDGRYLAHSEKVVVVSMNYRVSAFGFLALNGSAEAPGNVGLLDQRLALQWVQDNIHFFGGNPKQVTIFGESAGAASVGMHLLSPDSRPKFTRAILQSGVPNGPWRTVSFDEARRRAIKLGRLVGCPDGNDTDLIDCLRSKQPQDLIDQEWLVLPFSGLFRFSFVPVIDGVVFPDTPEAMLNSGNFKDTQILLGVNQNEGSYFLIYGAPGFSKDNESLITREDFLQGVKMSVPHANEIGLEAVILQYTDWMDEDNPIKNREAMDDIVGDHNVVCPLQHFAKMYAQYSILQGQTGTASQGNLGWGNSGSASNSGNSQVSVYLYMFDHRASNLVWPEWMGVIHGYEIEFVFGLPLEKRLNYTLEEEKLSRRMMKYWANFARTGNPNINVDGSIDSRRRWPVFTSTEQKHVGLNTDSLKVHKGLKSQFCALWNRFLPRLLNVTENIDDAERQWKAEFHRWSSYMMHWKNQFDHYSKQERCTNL
Description: The recorded data were analyzed with the enzyme kinetic module of SigmaPlot. All measurements were replicated three times, and the IC50 value obtained was confirmed by repeating the experiment twice.
For this purpose, eight different inhibitor solutions were prepared. […] The recorded data were analyzed by the enzyme kinetic module of SigmaPlot plotting the percentages of inhibition as a function of the different concentrations of the inhibitor, expressed in logarithmic scale, to obtain the sigmoid graph, from which it was possible to determine the IC50 value of the tested compound. The IC50 was confirmed by repeating the experiment twice.

| Compound | antioxidant activity (reaction with DPPH) [1] | reaction time (time for reaching the plateau) [1] [min] | cytotoxic effect on U-87 MG cells ([2]; 1 to 50 μM) | IC50 [3] [nM] | cytotoxicity on U-87 MG cells ([2]; concentrations up to 10 μM) |
| --- | --- | --- | --- | --- | --- |
| COc1cc(CNCCCCCCNc2ncccn2)ccc1O [Compound 18, 2-Methoxy-4-(((6-(pyrimidin-2-ylamino)hexyl)amino)methyl)phenol] | antioxidant properties; also recorded: showed antioxidant activity; also recorded: possess antioxidant activity | 90 | – | – | – |
| c1cnc(NCCCCCCNCc2c[nH]c3ccccc23)nc1 [Compound 22, N^1-((1H-Indol-3-yl)methyl)-N^6-(pyrimidin-2-yl)hexane-1,6-diamine] | – | – | more pronounced cytotoxic effect | – | – |
| Oc1cccc(CNCCCCCCNc2ncccn2)c1O [Compound 20, 3-(((6-(Pyrimidin-2-ylamino)hexyl)amino)methyl)benzene-1,2-diol] | antioxidant properties; also recorded: showed antioxidant activity; also recorded: possess antioxidant activity; also recorded: most efficient antioxidant | 1 | – | 622 | not cytotoxic |
| COc1cc(CNCCCCCCNc2ccccn2)ccc1O [Compound 30, 2-Methoxy-4-(((6-(pyridin-2-ylamino)hexyl)amino)methyl)phenol] | antioxidant properties; also recorded: showed antioxidant activity; also recorded: possess antioxidant activity | 90 | – | – | – |
| Oc1cccc(CNCCCCCCNc2ncccn2)c1 [Compound 19, 3-(((6-(Pyrimidin-2-ylamino)hexyl)amino)methyl)phenol] | did not show a significant ability to interact with DPPH; also recorded: no significant antioxidant capacity | – | – | – | – |

Reference: article PMC8569681, “New Pyrimidine and Pyridine Derivatives as Multitarget Cholinesterase Inhibitors: Design, Synthesis, and In Vitro and In Cellulo Evaluation” (ACS Chemical Neuroscience, 2021)
